# Patent US20200079793A1, “COMPOUNDS AND METHODS FOR MODULATING ADENOSINE A2B RECEPTOR AND ADENOSINE A2A RECEPTOR” (CORVUS PHARMACEUTICALS, INC., priority 2018, published 2020)
# Key:
# A1R = molecular target: T1, A1R (Homo sapiens, UniProt P30542); assay: Activity assay of adenosine receptor modulators, A1R cAMP (Table 1); format: cell-based
# T1 sequence (P30542 1-326): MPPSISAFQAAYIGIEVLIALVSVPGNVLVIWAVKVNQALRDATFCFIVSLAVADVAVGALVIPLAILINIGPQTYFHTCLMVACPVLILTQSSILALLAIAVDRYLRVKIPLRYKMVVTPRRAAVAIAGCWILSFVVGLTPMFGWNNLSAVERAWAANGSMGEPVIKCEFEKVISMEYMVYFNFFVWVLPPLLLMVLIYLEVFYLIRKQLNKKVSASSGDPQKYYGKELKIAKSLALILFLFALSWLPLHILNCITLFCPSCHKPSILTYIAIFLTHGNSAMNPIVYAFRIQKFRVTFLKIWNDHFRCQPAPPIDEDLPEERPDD
# Description: (§1) Compounds (e.g., adenosine receptor modulators) were tested for its biological activity. The assay results in Table 1 indicate (+ means >1 μM; ++ means 100 nM to 1 μM; +++ means <100 nM).
# Adenosine A2B Receptor = molecular target: T2, Adenosine A2B Receptor (Homo sapiens, UniProt P29275); assay: Activity assay of adenosine receptor modulators, Adenosine A2B Receptor (Table 1); format: biochemical; conditions: cAMP; read-out: A2BR cAMP IC50
# T2 sequence (P29275 1-332): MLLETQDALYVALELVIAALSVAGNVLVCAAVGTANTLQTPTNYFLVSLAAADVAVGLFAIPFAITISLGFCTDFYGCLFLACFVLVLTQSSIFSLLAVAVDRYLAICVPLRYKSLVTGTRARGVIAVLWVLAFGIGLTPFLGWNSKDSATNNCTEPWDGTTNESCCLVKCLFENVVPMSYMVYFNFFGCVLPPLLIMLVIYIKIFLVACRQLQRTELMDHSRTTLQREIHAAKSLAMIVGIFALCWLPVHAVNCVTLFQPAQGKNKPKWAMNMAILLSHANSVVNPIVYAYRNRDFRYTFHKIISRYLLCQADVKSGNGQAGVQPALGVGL
# Description: as §1
# A3R = molecular target: T3, A3R (Homo sapiens, UniProt P0DMS8); assay: Activity assay of adenosine receptor modulators, A3R cAMP (Table 1); format: cell-based
# T3 sequence (P0DMS8 1-318): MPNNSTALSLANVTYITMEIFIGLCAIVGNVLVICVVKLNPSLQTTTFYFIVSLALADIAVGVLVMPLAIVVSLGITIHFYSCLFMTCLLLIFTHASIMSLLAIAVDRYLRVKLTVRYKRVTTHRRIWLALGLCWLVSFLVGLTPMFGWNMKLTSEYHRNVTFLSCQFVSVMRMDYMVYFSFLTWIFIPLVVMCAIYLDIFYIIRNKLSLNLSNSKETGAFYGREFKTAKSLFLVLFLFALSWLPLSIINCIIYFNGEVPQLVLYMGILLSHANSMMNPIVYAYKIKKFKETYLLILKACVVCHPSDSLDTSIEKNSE
# Description: as §1
# Adenosine A2A Receptor = Adenosine A2A Receptor (Homo sapiens, UniProt P29274); assay: Activity assay of adenosine receptor modulators, Adenosine A2A Receptor (Table 1); format: biochemical; conditions: cAMP; read-out: A2AR cAMP IC50
# Description: as §1
# Chain of Adenosine A2A Receptor (P29274 whole entry): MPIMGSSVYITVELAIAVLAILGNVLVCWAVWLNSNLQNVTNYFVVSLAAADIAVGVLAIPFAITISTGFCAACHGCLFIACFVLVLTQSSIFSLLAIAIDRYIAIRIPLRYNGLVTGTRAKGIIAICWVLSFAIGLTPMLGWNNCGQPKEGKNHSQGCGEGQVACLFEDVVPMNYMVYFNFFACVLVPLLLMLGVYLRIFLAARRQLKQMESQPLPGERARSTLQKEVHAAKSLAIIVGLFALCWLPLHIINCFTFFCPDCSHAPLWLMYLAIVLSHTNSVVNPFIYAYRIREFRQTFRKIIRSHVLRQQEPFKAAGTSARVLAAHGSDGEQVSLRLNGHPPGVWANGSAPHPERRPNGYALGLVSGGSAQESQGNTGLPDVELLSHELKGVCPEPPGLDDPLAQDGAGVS
Compound,IC50 (A1R) [µM],IC50 (Adenosine A2B Receptor) [µM],IC50 (A3R) [µM],IC50 (Adenosine A2A Receptor) [µM]
"CO[C@@H]1CCN(C(=O)c2nc(N[C@@H](C)c3cncc(F)c3)nc3nc(C)sc23)C1 [Example 40, (5-(((S)-1-(5-Fluoropyridin-3-yl)ethyl)amino)-2-methylthiazolo[4,5-d]pyrimidin-7-yl)((R)-3-methoxypyrrolidin-1-yl)methanone]",> 1,< 0.1,> 1,0.1 to 1
"CO[C@H]1CCN(C(=O)c2nc(N[C@@H](C)c3cncc(F)c3)nc3nc(C)sc23)C1 [Example 41, (5-(((S)-1-(5-Fluoropyridin-3-yl)ethyl)amino)-2-methylthiazolo[4,5-d]pyrimidin-7-yl)((S)-3-methoxypyrrolidin-1-yl)methanone]",> 1,< 0.1,> 1,> 1
"COC[C@@H]1CCN(C(=O)c2nc(N[C@@H](C)c3cncc(F)c3)nc3nc(C)sc23)C1 [Example 47, (5-(((S)-1-(5-Fluoropyridin-3-yl)ethyl)amino)-2-methylthiazolo[4,5-d]pyrimidin-7-yl)((R)-3-(methoxymethyl)pyrrolidin-1-yl)methanone]",> 1,< 0.1,> 1,> 1
"COC[C@H]1CCN(C(=O)c2nc(N[C@@H](C)c3cncc(F)c3)nc3nc(C)sc23)C1 [Example 48, (5-(((S)-1-(5-Fluoropyridin-3-yl)ethyl)amino)-2-methylthiazolo[4,5-d]pyrimidin-7-yl)((S)-3-(methoxymethyl)pyrrolidin-1-yl)methanone]",> 1,< 0.1,> 1,0.1 to 1
"Cc1nc2nc(N[C@@H](C)c3cncc(F)c3)nc(C(=O)N3CC[C@@H](CO)C3)c2s1 [Example 49, (5-(((S)-1-(5-Fluoropyridin-3-yl)ethyl)amino)-2-methylthiazolo[4,5-d]pyrimidin-7-yl)((R)-3-(hydroxymethyl)pyrrolidin-1-yl)methanone]",> 1,< 0.1,> 1,> 1
"Cc1nc2nc(N[C@@H](C)c3cncc(F)c3)nc(C(=O)N3CC[C@H](CO)C3)c2s1 [Example 50, (5-(((S)-1-(5-Fluoropyridin-3-yl)ethyl)amino)-2-methylthiazolo[4,5-d]pyrimidin-7-yl)((S)-3-(hydroxymethyl)pyrrolidin-1-yl)methanone]",> 1,< 0.1,> 1,0.1 to 1
"COCC1CN(C(=O)c2nc(N[C@@H](C)c3cncc(F)c3)nc3nc(C)sc23)C1 [Example 51, (S)-(5-((1-(5-Fluoropyridin-3-yl)ethyl)amino)-2-methylthiazolo[4,5-d]pyrimidin-7-yl)(3-(methoxymethyl)azetidin-1-yl)methanone]",> 1,< 0.1,> 1,0.1 to 1
"CC(=O)NC[C@@H]1CCN(C(=O)c2nc(N[C@@H](C)c3cncc(F)c3)nc3nc(C)sc23)C1 [Example 52, N—(((S)-1-(5-(((S)-1-(5-Fluoropyridin-3-yl)ethyl)amino)-2-methylthiazolo[4,5-d]pyrimidine-7-carbonyl)pyrrolidin-3-yl)methyl)acetamide]",> 1,< 0.1,> 1,> 1
"CC(=O)NC[C@H]1CCN(C(=O)c2nc(N[C@@H](C)c3cncc(F)c3)nc3nc(C)sc23)C1 [Example 53, N—(((R)-1-(5-(((S)-1-(5-Fluoropyridin-3-yl)ethyl)amino)-2-methylthiazolo[4,5-d]pyrimidine-7-carbonyl)pyrrolidin-3-yl)methyl)acetamide]",> 1,0.1 to 1,> 1,> 1
"Cc1nc2nc(N[C@@H](C)c3cncc(F)c3)nc(C(=O)N3CC(NC(=O)c4ccccc4F)C3)c2s1 [Example 59, (S)-2-Fluoro-N-(1-(5-((1-(5-fluoropyridin-3-yl)ethyl)amino)-2-methylthiazolo[4,5-d]pyrimidine-7-carbonyl)azetidin-3-yl)benzamide]",> 1,< 0.1,0.1 to 1,< 0.1
"Cc1nc2nc(N[C@@H](C)c3ccccn3)nc(C(=O)N3CC(NC(=O)C(C)(C)C)C3)c2s1 [Example 62, 2,2-Dimethyl-N-[1-[2-methyl-5-[[(S)-1-(2-pyridyl)ethyl]amino]thiazolo[4,5-d]pyrimidine-7-carbonyl]azetidin-3-yl]propanamide]",> 1,< 0.1,0.1 to 1,< 0.1
"Cc1nc2nc(N[C@@H](C)c3ccccn3)nc(C(=O)N3CC(NC(=O)NC(C)(C)C)C3)c2s1 [Example 63, (S)-1-(tert-Butyl)-3-(1-(2-methyl-5-((1-(pyridin-2-yl)ethyl)amino)thiazolo[4,5-d]pyrimidine-7-carbonyl)azetidin-3-yl)urea]",> 1,0.1 to 1,0.1 to 1,< 0.1
"Cc1nc2nc(N[C@@H](C)c3cccnc3)nc(C(=O)N3CC(NC(=O)C(C)(C)C)C3)c2s1 [Example 64, (S)—N-(1-(2-Methyl-5-((1-(pyridin-3-yl)ethyl)amino)thiazolo[4,5-d]pyrimidine-7-carbonyl)azetidin-3-yl)pivalamide]",> 1,0.1 to 1,0.1 to 1,< 0.1

# Results, then the compound that gave them:
IC50 (A1R) [µM],IC50 (Adenosine A2B Receptor) [µM],IC50 (A3R) [µM],IC50 (Adenosine A2A Receptor) [µM],Compound
> 1,< 0.1,< 0.1,< 0.1,"Cc1nc2nc(N[C@@H](C)c3cncc(F)c3)nc(C(=O)N3CC(NC(=O)C4(C)CC4)C3)c2s1 [Example 54, (S)—N-(1-(5-((1-(5-Fluoropyridin-3-yl)ethyl)amino)-2-methylthiazolo[4,5-d]pyrimidine-7-carbonyl)azetidin-3-yl)-1-methylcyclopropane-1-carboxamide]"
> 1,< 0.1,< 0.1,< 0.1,"Cc1nc2nc(N[C@@H](C)c3cncc(F)c3)nc(C(=O)N3CC(NC(=O)C4CCCC4)C3)c2s1 [Example 55, (S)—N-(1-(5-((1-(5-Fluoropyridin-3-yl)ethyl)amino)-2-methylthiazolo[4,5-d]pyrimidine-7-carbonyl)azetidin-3-yl)cyclopentanecarboxamide]"
> 1,< 0.1,< 0.1,< 0.1,"Cc1nc2nc(N[C@@H](C)c3cncc(F)c3)nc(C(=O)N3CC(NC(=O)C4CCC4)C3)c2s1 [Example 56, (S)—N-(1-(5-((1-(5-Fluoropyridin-3-yl)ethyl)amino)-2-methylthiazolo[4,5-d]pyrimidine-7-carbonyl)azetidin-3-yl)cyclobutanecarboxamide]"
> 1,< 0.1,0.1 to 1,< 0.1,"Cc1nc2nc(N[C@@H](C)c3cncc(F)c3)nc(C(=O)N3CC(NC(=O)NC(C)(C)C)C3)c2s1 [Example 57, (S)-1-(tert-Butyl)-3-(1-(5-((1-(5-fluoropyridin-3-yl)ethyl)amino)-2-methylthiazolo[4,5-d]pyrimidine-7-carbonyl)azetidin-3-yl)urea]"
> 1,< 0.1,< 0.1,< 0.1,"Cc1nc2nc(N[C@@H](C)c3cncc(F)c3)nc(C(=O)N3CC(NC(=O)c4ccccc4)C3)c2s1 [Example 58, (S)—N-(1-(5-((1-(5-Fluoropyridin-3-yl)ethyl)amino)-2-methylthiazolo[4,5-d]pyrimidine-7-carbonyl)azetidin-3-yl)benzamide]"
> 1,< 0.1,0.1 to 1,< 0.1,"Cc1nc2nc(N[C@@H](C)c3cncc(F)c3)nc(C(=O)N3CC(NC(=O)NC4CCCC4)C3)c2s1 [Example 60, (S)-1-Cyclopentyl-3-(1-(5-((1-(5-fluoropyridin-3-yl)ethyl)amino)-2-methylthiazolo[4,5-d]pyrimidine-7-carbonyl)azetidin-3-yl)urea]"
> 1,< 0.1,< 0.1,< 0.1,"Cc1nc2nc(N[C@@H](C)c3cncc(F)c3)nc(C(=O)N3CC(NC(=O)C4CCCCC4)C3)c2s1 [Example 61, (S)—N-(1-(5-((1-(5-Fluoropyridin-3-yl)ethyl)amino)-2-methylthiazolo[4,5-d]pyrimidine-7-carbonyl)azetidin-3-yl)cyclohexanecarboxamide]"
